Reference: ChEMBL document CHEMBL1201862, “PubChem BioAssay data set” (2004)
Blank lines part the entries; values can stand above or below the compound they belong to. The source made the active and inactive calls.

What was measured:
[1] = non-specific 3'UTR reporter inhibition in Clone20-Shn3RL – cell-based, Renilla luciferase, cherry-picked, counter-screen for Shn3 inhibitor project, dose response (AID 624133); assay type: functional
CHO = CHO cell viability loss, potency – luminescence, cytotoxicity control for TLR9-MyD88 binding inhibitor project, dose response (AID 588339); assay type: functional, cell-based, hamster; conditions: Cricetulus griseus;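 also: CHO cells stably coexpressing TLR9 and MyD88 fusions from primary screen; compound exposure lasted 48 hours before viability readout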
[2] = cAMP pathway inhibition in counterscreen cell line – TR-FRET cAMP detection, counter-screen for MC4R biased antagonist project, dose response (AID 602305); assay type: functional, cell-based;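 also: U2OS cells stimulated with forskolin near its EC80 as the cAMP inducer; potency is for inhibition of forskolin-stimulated cAMP signaling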
Melanocortin receptor 4 = Melanocortin receptor 4 (Homo sapiens, UniProt P32245); experiment: inhibitors of MC4R cAMP signaling – cell-based, TR-FRET, biased antagonists, dose response (AID 602298); assay type: functional;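 also: antagonist potency against agonist-stimulated cAMP production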
[3] = target: T1, Rac GTPase-activating protein 1 (Homo sapiens, UniProt Q9H0H5); experiment: blockers of MgcRacGAP-driven Rac1 GTP hydrolysis – biochemical, ADP Hunter fluorescence, primary and confirmatory, confirmation (AID 624330); assay type: functional
T1 sequence (Q9H0H5 whole entry): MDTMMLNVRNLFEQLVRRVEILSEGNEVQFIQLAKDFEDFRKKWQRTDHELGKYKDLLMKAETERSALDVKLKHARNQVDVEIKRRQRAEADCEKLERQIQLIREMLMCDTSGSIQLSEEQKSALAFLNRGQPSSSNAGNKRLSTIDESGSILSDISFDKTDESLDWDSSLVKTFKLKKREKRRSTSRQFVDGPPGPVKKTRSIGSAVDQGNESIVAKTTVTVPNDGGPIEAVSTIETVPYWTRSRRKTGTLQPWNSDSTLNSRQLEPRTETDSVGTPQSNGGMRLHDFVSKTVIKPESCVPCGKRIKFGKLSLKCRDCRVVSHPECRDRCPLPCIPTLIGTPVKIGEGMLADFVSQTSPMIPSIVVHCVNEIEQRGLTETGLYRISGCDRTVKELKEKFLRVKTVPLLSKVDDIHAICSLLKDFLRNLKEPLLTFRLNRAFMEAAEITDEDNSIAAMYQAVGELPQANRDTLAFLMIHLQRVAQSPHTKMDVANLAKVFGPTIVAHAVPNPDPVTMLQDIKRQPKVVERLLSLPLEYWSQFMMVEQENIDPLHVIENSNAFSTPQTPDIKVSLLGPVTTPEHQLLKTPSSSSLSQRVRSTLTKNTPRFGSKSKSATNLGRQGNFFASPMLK

[4] = reduction of Shn3 3'UTR-driven luciferase in osteoblasts – cell-based, Clone20 osteoblasts, firefly luciferase, cherry-picked, dose response (AID 624132); assay type: functional;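 also: firefly luciferase luminescence from reporter carrying the Shn3 3'UTR in osteoblasts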
Beta Lactamase = Beta Lactamase (Pseudomonas aeruginosa, UniProt Q932Y6); experiment: BLA reporter interference, concentration series – BLA reporter cells, FRET fluorescence, artefact control for TLR9-MyD88 binding inhibitor project, dose response (AID 588341); assay type: cell-based;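 also: cell based assay in CHO-K1 cells stably expressing beta-lactamase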
Beta-galactosidase = Beta-galactosidase (Escherichia coli, UniProt Q8VNN2); experiment: PubChem AID 485352; assay type: functional
[5] = target: Heat shock protein HSP 90-alpha (Homo sapiens, UniProt P07900); assay type: functional, organism-based
[6] = target: T2, Type-1 angiotensin II receptor (Homo sapiens, UniProt P30556); experiment: antagonism of angiotensin II type 1 receptor – cell-based, uHTS hits, selectivity assay for APJ receptor antagonist project, dose response (AID 463214); assay type: functional;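 also: antagonist potency against angiotensin II stimulated AT1 response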
T2 sequence (P30556 whole entry): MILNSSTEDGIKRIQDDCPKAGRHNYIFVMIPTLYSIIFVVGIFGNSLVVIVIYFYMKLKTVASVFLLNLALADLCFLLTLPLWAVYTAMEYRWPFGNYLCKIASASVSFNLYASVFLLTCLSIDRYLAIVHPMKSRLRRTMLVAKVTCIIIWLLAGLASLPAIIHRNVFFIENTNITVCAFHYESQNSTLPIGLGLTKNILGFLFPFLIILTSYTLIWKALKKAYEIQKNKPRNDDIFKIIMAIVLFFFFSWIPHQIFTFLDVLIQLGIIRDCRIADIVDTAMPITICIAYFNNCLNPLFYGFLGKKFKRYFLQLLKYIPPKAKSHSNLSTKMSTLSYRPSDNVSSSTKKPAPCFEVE

Fatty acid synthase [7] = target: T3, Fatty acid synthase (Homo sapiens, UniProt P49327); experiment: inhibition of human FAS-TE enzyme activity – biochemical, endpoint fluorescence intensity, uHTS hits, dose response (AID 624327); assay type: functional;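 also: fluorescence from hydrolysis of an O-methyl fluorescein acyl ester substrate by the enzyme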
[8] = viability loss in HeLa cells – cytotoxicity control for MgcRacGAP inhibitor project, dose response (AID 624300); assay type: functional
Fatty acid synthase [9] = target: T3, Fatty acid synthase; experiment: inhibition of human FAS-TE enzyme activity – biochemical, kinetic fluorescence intensity, dose response (AID 624326); assay type: functional;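 also: rate of fluorescence rise from hydrolysis of a fluorogenic O-methyl fluorescein ester substrate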
[10] = target: E3 ubiquitin-protein ligase Mdm2 (Homo sapiens, UniProt Q00987); experiment: MDM2-luc reporter signal enhancers, multi-concentration potency testing, MDM2 ubiquitin-protein ligase inhibitor program, whole-cell format, luminescence detection, 384-well microplate (AID 1394); assay type: functional;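 also: MDM2 E3 inhibitors raise luminescence so EC50 is for signal enhancement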
[11] = HEK-293T viability loss after treatment – luminescence, T-cell screen hits, cytotoxicity control for TCR NF-kB inhibitor project, dose response (AID 489026); assay type: functional, cell-based;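 also: cells exposed to compound about 14 hours before the viability readout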
[12] = target: DNA dC->dU-editing enzyme APOBEC-3G (Homo sapiens, UniProt Q9HC16); experiment: inhibition of APOBEC3G ssDNA deamination – biochemical, fluorescence, single-stranded DNA substrate, SAR follow-up (AID 602136); assay type: functional; conditions: read-out: IC50_Mean
[13] = target: DNA dC->dU-editing enzyme APOBEC-3A (Homo sapiens, UniProt P31941); experiment: SAR analysis of small molecule inhibitors of APOBEC3A DNA Deaminase via a fluorescence-based single-stranded DNA deaminase assay.; assay type: functional; conditions: read-out: IC50_Mean
[14] = target: Ribosomal protein S6 kinase beta-1 (Homo sapiens, UniProt P23443); assay type: functional;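 also: measured as one member of a kinome-wide profiling panel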
[15] = target: Glycogen synthase kinase-3 beta (Homo sapiens, UniProt P49841); assay type: functional;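 also: value comes from a broad kinome profiling panel, with GSK3B as the panel member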
[16] = target: MAP kinase-activated protein kinase 2 (Homo sapiens, UniProt P49137); assay type: functional;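 also: measured as one member of a kinome-wide kinase panel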
[17] = target: Ribosomal protein S6 kinase alpha-3 (Homo sapiens, UniProt P51812); assay type: functional;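 also: measured within a kinome-wide profiling panel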
[18] = target: Serine/threonine-protein kinase SIK2 (Homo sapiens, UniProt Q9H0K1); experiment: Navigating the Kinome. Panel member name: SIK2; assay type: functional
[19] = target: Macrophage-stimulating protein receptor (Homo sapiens, UniProt Q04912); experiment: Navigating the Kinome. Panel member name: MST1R; assay type: functional
[20] = target: BDNF/NT-3 growth factors receptor (Homo sapiens, UniProt Q16620); assay type: functional;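 also: NTRK2 measured as one member of a broad kinome-wide kinase profiling panel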
[21] = target: MAP/microtubule affinity-regulating kinase 3 (Homo sapiens, UniProt P27448); assay type: functional;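 also: MARK3 affinity measured as one member of a kinome panel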
[22] = target: Dual specificity tyrosine-phosphorylation-regulated kinase 1B (Homo sapiens, UniProt Q9Y463); experiment: Navigating the Kinome. Panel member name: DYRK1B; assay type: functional
[23] = target: Proto-oncogene tyrosine-protein kinase ROS (Homo sapiens, UniProt P08922); assay type: functional;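 also: ROS1 tested as one member of a kinome-wide kinase panel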
[24] = target: Glycogen synthase kinase-3 alpha (Homo sapiens, UniProt P49840); assay type: functional;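 also: GSK3A result taken from a broad kinome-wide kinase panel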
[25] = target: Tyrosine-protein kinase receptor TYRO3 (Homo sapiens, UniProt Q06418); assay type: functional;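 also: TYRO3 value obtained as one member of a kinome-wide profiling panel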
[26] = target: Death-associated protein kinase 3 (Homo sapiens, UniProt O43293); assay type: functional;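 also: measured as one member of a kinome-wide profiling panel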
[27] = target: Maternal embryonic leucine zipper kinase (Homo sapiens, UniProt Q14680); assay type: functional
[28] = target: Serine/threonine-protein kinase D3 (Homo sapiens, UniProt O94806); assay type: functional;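 also: determined within a kinase panel screen, with PRKCN as the panel member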
[29] = target: MAP/microtubule affinity-regulating kinase 4 (Homo sapiens, UniProt Q96L34); experiment: Navigating the Kinome. Panel member name: MARK4; assay type: functional
[30] = target: Mitogen-activated protein kinase kinase kinase kinase 2 (Homo sapiens, UniProt Q12851); assay type: functional;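 also: measured as one member of a kinome-wide kinase panel, with MAP4K2 as the panel entry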
[31] = target: Leukocyte tyrosine kinase receptor (Homo sapiens, UniProt P29376); experiment: Navigating the Kinome. Panel member name: LTK; assay type: functional
[32] = target: Serine/threonine-protein kinase TAO1 (Homo sapiens, UniProt Q7L7X3); assay type: functional

T3 sequence (P49327 whole entry): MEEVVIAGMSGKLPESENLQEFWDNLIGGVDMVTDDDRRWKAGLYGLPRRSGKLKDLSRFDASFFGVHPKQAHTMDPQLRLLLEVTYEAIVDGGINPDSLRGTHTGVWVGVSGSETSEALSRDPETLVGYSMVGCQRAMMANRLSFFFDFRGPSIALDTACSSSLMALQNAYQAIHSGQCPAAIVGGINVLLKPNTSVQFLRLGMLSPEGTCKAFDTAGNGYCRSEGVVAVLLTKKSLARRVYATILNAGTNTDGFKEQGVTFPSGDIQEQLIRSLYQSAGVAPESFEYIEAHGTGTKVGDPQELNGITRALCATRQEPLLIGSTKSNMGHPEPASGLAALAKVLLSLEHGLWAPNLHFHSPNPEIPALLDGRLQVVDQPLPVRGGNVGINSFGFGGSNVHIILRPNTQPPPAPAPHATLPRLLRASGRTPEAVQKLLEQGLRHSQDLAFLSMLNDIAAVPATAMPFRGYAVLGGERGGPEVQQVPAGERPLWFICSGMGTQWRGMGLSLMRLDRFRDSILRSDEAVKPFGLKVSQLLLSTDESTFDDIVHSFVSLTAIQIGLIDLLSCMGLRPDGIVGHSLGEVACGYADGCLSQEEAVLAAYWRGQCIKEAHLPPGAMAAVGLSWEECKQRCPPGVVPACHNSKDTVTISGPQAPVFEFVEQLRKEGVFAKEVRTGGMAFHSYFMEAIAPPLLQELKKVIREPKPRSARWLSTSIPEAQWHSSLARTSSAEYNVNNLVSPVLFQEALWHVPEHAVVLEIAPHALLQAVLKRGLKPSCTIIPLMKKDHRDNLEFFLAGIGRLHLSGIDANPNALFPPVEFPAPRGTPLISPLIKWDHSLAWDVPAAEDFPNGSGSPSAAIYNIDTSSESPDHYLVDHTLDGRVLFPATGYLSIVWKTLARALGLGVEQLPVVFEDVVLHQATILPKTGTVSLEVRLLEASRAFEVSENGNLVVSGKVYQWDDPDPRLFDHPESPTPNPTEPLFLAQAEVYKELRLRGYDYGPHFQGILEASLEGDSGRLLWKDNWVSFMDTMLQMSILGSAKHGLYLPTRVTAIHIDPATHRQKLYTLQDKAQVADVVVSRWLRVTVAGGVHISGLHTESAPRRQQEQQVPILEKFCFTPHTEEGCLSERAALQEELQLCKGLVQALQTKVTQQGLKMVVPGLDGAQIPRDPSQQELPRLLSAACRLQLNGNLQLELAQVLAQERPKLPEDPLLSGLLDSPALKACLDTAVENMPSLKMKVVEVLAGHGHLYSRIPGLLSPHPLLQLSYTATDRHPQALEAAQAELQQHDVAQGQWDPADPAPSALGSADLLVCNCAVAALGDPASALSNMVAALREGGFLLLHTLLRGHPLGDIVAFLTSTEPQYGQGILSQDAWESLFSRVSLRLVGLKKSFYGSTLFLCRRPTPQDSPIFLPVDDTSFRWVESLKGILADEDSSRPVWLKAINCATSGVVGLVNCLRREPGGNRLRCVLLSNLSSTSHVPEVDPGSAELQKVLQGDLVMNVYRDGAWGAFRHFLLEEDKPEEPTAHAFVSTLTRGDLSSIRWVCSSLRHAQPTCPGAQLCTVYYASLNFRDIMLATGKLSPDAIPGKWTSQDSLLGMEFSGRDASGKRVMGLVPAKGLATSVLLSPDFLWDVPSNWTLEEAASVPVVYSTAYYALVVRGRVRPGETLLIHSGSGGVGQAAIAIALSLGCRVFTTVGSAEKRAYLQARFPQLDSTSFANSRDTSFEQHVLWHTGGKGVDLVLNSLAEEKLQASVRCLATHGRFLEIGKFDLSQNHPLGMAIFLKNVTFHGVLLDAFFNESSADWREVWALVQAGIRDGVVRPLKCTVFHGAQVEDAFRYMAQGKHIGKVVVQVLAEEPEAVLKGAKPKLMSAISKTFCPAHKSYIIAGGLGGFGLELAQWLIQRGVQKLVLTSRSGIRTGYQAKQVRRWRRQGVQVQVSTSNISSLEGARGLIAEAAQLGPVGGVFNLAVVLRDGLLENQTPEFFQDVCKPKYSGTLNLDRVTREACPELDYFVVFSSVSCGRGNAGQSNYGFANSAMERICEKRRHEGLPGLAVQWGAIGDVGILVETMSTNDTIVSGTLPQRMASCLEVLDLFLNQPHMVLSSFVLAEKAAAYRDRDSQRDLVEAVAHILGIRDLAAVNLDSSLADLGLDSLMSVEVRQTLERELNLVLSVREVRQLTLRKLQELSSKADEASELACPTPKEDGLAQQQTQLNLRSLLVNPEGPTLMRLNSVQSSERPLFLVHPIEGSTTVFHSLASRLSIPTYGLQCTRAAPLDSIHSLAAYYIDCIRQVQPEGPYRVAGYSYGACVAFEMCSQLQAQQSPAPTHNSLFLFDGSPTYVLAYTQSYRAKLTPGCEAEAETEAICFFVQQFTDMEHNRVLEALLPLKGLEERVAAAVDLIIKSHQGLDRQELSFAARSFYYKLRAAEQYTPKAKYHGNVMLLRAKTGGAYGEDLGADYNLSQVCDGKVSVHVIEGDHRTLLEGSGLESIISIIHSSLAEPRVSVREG
Leukocyte tyrosine kinase receptor, sequence (P29376 whole entry): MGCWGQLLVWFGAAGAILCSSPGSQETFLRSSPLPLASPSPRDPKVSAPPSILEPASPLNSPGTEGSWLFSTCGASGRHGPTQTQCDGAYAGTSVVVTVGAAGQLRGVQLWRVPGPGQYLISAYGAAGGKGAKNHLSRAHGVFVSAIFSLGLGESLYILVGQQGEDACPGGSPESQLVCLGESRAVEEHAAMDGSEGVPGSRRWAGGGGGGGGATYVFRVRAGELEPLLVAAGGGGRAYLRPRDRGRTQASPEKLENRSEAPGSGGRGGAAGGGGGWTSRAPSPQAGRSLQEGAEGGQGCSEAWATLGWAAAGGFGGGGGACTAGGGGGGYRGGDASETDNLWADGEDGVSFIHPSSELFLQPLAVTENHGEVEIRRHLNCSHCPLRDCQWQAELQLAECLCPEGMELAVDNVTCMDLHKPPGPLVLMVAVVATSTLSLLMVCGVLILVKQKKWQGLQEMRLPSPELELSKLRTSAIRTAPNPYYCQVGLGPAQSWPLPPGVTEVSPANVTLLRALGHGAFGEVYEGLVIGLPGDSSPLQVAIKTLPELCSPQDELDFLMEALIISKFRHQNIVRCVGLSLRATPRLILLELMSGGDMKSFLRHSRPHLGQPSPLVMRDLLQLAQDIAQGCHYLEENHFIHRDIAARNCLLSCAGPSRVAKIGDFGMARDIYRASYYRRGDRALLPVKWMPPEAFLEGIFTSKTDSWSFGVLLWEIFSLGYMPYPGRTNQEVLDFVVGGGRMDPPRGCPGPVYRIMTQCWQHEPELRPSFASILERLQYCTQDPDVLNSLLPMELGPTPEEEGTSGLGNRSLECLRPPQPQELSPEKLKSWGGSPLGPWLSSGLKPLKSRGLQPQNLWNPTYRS
Tyrosine-protein kinase receptor TYRO3, sequence (Q06418 whole entry): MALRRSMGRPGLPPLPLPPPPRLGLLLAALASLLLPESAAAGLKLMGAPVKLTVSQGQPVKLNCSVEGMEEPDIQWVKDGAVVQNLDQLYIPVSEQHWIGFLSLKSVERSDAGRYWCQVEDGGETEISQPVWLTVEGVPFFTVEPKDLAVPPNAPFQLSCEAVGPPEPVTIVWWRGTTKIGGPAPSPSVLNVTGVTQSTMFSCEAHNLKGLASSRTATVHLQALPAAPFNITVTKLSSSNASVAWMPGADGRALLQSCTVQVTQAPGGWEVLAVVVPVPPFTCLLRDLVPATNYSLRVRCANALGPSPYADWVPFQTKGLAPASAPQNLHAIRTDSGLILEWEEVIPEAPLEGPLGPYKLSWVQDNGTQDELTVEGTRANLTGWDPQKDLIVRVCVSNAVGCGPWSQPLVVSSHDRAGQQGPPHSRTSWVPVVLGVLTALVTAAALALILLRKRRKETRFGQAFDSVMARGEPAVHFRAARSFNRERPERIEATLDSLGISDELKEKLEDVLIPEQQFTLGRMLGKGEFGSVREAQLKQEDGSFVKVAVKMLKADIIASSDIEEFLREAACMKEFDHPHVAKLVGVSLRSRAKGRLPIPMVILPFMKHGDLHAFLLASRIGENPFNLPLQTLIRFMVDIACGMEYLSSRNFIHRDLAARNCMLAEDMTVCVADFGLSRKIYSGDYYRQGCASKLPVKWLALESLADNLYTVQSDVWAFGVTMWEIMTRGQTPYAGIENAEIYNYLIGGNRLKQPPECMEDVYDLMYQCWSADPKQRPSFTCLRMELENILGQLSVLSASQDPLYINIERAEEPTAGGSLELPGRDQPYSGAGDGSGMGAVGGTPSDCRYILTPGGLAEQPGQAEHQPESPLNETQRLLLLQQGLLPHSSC
MAP kinase-activated protein kinase 2, sequence (P49137 whole entry): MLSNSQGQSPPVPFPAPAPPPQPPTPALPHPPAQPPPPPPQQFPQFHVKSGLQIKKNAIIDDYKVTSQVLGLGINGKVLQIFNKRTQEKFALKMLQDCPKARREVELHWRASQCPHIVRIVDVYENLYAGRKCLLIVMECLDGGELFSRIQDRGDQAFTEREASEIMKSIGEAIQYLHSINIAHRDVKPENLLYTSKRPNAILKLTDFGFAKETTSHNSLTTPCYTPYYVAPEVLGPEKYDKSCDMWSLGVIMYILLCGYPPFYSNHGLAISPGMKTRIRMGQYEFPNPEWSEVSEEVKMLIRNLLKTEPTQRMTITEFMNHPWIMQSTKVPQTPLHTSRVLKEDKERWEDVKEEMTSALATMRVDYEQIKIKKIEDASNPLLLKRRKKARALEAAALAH
Glycogen synthase kinase-3 beta, sequence (P49841 whole entry): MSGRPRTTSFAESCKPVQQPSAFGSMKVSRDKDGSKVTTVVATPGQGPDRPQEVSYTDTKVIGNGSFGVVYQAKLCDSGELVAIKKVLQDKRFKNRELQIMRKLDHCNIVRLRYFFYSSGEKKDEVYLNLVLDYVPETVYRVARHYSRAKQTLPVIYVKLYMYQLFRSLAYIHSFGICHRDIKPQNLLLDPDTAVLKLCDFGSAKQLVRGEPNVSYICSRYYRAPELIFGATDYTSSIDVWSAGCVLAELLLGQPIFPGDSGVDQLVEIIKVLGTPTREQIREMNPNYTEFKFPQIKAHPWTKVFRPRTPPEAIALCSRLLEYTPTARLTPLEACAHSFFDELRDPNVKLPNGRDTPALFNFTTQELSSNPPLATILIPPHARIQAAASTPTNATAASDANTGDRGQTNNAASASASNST

Compound: COc1ccc(NC(=O)/C(Cl)=C(/Cl)[S+]([O-])Cc2ccc(Cl)cc2)cn1 (stereo unspecified)
AC50 [1]: 3480 nM (active)
IC50 (CHO): 463 nM (active)
IC50 [2]: > 64600 nM (inactive)
IC50 (Melanocortin receptor 4): 9970 nM (active)
IC50 [3]: 16900 nM (active)
AC50 [4]: 1340 nM (active)
IC50 (Beta Lactamase): 7830 nM (active)
EC50 (Beta-galactosidase): > 40000 nM (inactive)
AC50 [5]: 885 nM (active)
IC50 [6]: 2350 nM (active)
IC50 (Fatty acid synthase [7]): 5570 nM (active)
CC50 [8]: 100000 nM (active)
IC50 (Fatty acid synthase [9]): 2830 nM (active)
EC50 [10]: 620 nM (active)
IC50 [11]: 41700 nM (inactive)

Compound: CCCCn1c(=O)c2ccccc2n2c(SCCS(=O)(=O)c3ccccc3)nnc12
IC50 [12]: > 99000 nM (inactive)
IC50 [13]: > 99000 nM (inactive)

Compound: CCOC(=O)c1c(NC(=O)C2C(C)(C)C2(C)C)sc2cnccc12
Ki [14]: 2510 nM (active)
Ki [15]: 3980 nM (active)
Ki [16]: 6310 nM (active)
Ki [17]: 6310 nM (active)

Ki [18]: 251 nM (active)
Ki [19]: 100 nM (active)
Ki [20]: 2000 nM (active)
Ki [21]: 794 nM (active)
Ki [22]: > 2000 nM (inactive)
Ki [23]: 501 nM (active)
Ki [24]: 158 nM (active)
Ki [25]: 794 nM (active)
Ki [27]: 631 nM (active)
Ki [28]: 2000 nM (active)
Ki [29]: 100 nM (active)
Ki [30]: 1580 nM (active)
Ki [31]: > 1580 nM (inactive)
Ki [32]: 25.1 nM (active)
Compound: Nc1nc(Nc2ccc(S(N)(=O)=O)cc2)nn1C(=O)c1c(F)cccc1F [JNJ-7706621]
Ki [26]: 2000 nM (active)
